Measurements from US20070281857A1, “FORMIC ACID AS AN HERBICIDE” (MARRONE ORGANIC INNOVATIONS, priority 2006, published 2007).
Like-named read-outs stand apart in the source and are kept apart here.

Assays:
[1] = tested on: monocotyledonous wheat plants (Triticum aestivum); conditions: one day post-treatment
From the text: (§1) In order to determine whether formic acid could be used as a foliar herbicide it was applied as a foliar spray to the leaves of dicotyledonous radish plants (Raphanus sativas) and monocotyledonous wheat plants (Triticum aestivum). Solutions were applied to plants using a small handheld sprayer.
(§2) Formic acid and acetic acid solutions at three concentrations (1%, 3%, 5%) were applied and water was used as a check. A barrier was inserted between the rows of plants on either side of the row being treated to avoid drift of sprays into neighboring rows. Plants were evaluated at 24-hour and 72-hour intervals for the number of surviving plants and a percentage was derived from this number in comparison with the number of plants originally present in the row.

[2] = tested on: dicotyledonous radish plants (Raphanus sativas); conditions: foliar spray at all concentrations (1%, 3%, 5%); one day post-treatment
From the text: as §1, §2

[3] = tested on: radish (Raphanus sativus); conditions: spray, 1, 3 and 5% in water with 0.04% Tween 20
Method: (§3) The herbicidal effect of formic acid was compared with that of acetic acid in a greenhouse study using radish (Raphanus sativus) and wheat (Triticum aestivum) as test plants. Both formic acid and acetic acid were diluted in water at 1, 3, and 5%, and deionized water was used as a control. Tween 20 was added to each of the solutions at a rate 0.04% for use as a surfactant. Solutions were applied to plants using a small handheld sprayer. Plants were evaluated at 24- and 72-hours after treatment for the % control.

[4] = tested on: wheat (Triticum aestivum); conditions: 5%, spray
Method: as §3

[5] = tested on: apple seedlings
Method: In order to estimate the length of time during which the presence of formic acid in the soil would have a negative effect on new, and perhaps desirable, plantings, a residue study was performed. Holes were cut into the bottoms of flats. The flats were then filled with soil and treated with charcoal immersed in either formic acid or water, just as described above. Soil was watered regularly in order to simulate natural growing conditions and soil leaching. Ten apple seedlings were planted in individual flats containing one treatment or the other at intervals of one week and survival was monitored for one week following each planting.

[6] = tested on: Lactuca sativa (lettuce) seed; conditions: stepwise dilution series from 25% to 0%
From the text: Numerous natural compounds were screened for their ability to inhibit the germination of dicot seeds. A single seed of Lactuca sativa (lettuce) was placed in each well of a 96-well plate followed by a solution of each compound in a stepwise dilution series from 25% to 0%. Germination was monitored daily.

In the case of `O=CO` [Formic acid], the wheat foliage killed ([1]; foliar spray 1%) is reported as “none of the foliage killed”, the wheat plants killed ([1]; foliar spray 5%) is reported as 10% and the “killing of foliage of radish plants” value [2] is reported as “completely killed all the foliage”. The “% control of radish plants” value ([3]; 24-h) was 100%, the “% control of radish plants” value ([3]; 72-h) was 100% and the “% control of wheat seedlings” value ([4]; 24-h) was 1%. For the same compound, the “% control of wheat seedlings” value ([4]; 72-h) was 4%, the “survival of planted seedlings” value ([5]; "By week 1, however, and in all subsequent weeks", identical to water group) was 100% and the “residual herbicidal effect lasting” value ([5]; formic acid on charcoal in watered soil) was “less than one week”. The planted seedlings survived ([5]; week 1, flats treated with charcoal immersed in formic acid, water flats 100 percent) was 80% and the “threshold value to inhibit germination of seeds” value [6] was 0.0013%.
